# Data reported in US20250345446A1 (Draupnir Bio ApS, priority 2022, published 2025).
# Residues, ends and D or L forms follow the SMILES beside them. No end group written: not given here. *: point of attachment. Biotin = O=C1N[C@H]2[C@H](CS[C@H]2CCCCC(=O)*)N1
# Target: T1, soluble ectodomain of sortilin-6his (Homo sapiens, UniProt Q99523, V650M)
# T1 construct: the soluble ectodomain of sortilin-6his is measured by microscale thermophoresis (MST)
# Test: MST binding to soluble ectodomain of sortilin-6his
# Settings: Table 1; biotin-linker-peptide bifunctional compounds; MST; read-out: KD score, binding to sortilin (Kd)
row,Molecule,Kd [nM]
1,CC(C)C[C@H](NC(=O)[C@H](CC(C)C)NC(=O)[C@H](CCC(N)=O)NC(=O)[C@H](Cc1ccccc1)NC(=O)CNC(=O)CNC(=O)[C@H](CO)NC(=O)CNC(=O)CNC(=O)CCCC[C@@H]1SC[C@@H]2NC(=O)N[C@@H]21)C(=O)O [compound 144] (Biotin-GGSGGFQLL-OH),< 100
2,CC(C)C[C@H](NC(=O)[C@H](CC(C)C)NC(=O)[C@H](CCC(N)=O)NC(=O)[C@H](CCCNC(=N)N)NC(=O)CNC(=O)CNC(=O)CNC(=O)CNC(=O)[C@H](CO)NC(=O)CNC(=O)CNC(=O)CCCC[C@@H]1SC[C@@H]2NC(=O)N[C@@H]21)C(=O)O [compound 150] (Biotin-GGSGGGGRQLL-OH),< 100
3,CC(C)C[C@H](NC(=O)[C@H](CC(C)C)NC(=O)[C@H](CCC(N)=O)NC(=O)[C@H](CCCNC(=N)N)NC(=O)[C@H](CO)NC(=O)CNC(=O)CNC(=O)CCCC[C@@H]1SC[C@@H]2NC(=O)N[C@@H]21)C(=O)O [compound 152] (Biotin-GGSRQLL-OH),100 to 2000
4,CC(C)C[C@H](NC(=O)[C@H](CC(C)C)NC(=O)[C@H](CCC(N)=O)NC(=O)[C@H](CCCNC(=N)N)NC(=O)CNC(=O)CNC(=O)CCCC[C@@H]1SC[C@@H]2NC(=O)N[C@@H]21)C(=O)O [compound 153] (Biotin-GGRQLL-OH),< 100
5,CC(C)C[C@H](NC(=O)[C@H](CC(C)C)NC(=O)[C@H](CCC(N)=O)NC(=O)[C@H](CCCNC(=N)N)NC(=O)CCCC[C@@H]1SC[C@@H]2NC(=O)N[C@@H]21)C(=O)O [compound 154] (Biotin-RQLL-OH),< 100

# Same assay, conditions: Table 3; monofunctional peptides; MST; read-out: KD score, binding to sortilin (Kd)
row,Molecule,Kd [nM]
1,CC[C@H](C)[C@H](NC(=O)[C@H](CC(C)C)NC(=O)[C@H](CCC(N)=O)NC(=O)[C@@H](N)CCCNC(=N)N)C(=O)O [compound 163] (H-RQLI-OH),> 2500
2,CC(C)C[C@H](NC(=O)[C@H](CCC(N)=O)NC(=O)[C@@H](N)CCCNC(=N)N)C(=O)N[C@@H](Cc1ccccc1)C(=O)O [compound 164] (H-RQLF-OH),> 2500
3,CSCC[C@H](NC(=O)[C@H](CC(C)C)NC(=O)[C@H](CCC(N)=O)NC(=O)[C@@H](N)CCCNC(=N)N)C(=O)O [compound 165] (H-RQLM-OH),> 2500
4,CC(C)C[C@H](NC(=O)[C@H](CCC(N)=O)NC(=O)[C@@H](N)CCCNC(=N)N)C(=O)O [compound 166] (H-Arg-Gln-Leu-OH),> 2500
5,"CC(C)C[C@H](NC(=O)[C@H](CCCNC(=N)N)NC(=O)[C@H](C)NC(=O)[C@H](C)N)C(=O)O [compound 196, AARL-OH] (H-AARL-OH)",250 to 2500
6,APLRDPAPRQLL-OH [compound 57],25 to 250
7,GGSGGGGSGGGGSGGRQLL-OH [compound 167],25 to 250
8,H-GVSWGLR-OH [compound 52],> 2500
9,H-ITVDPRLFKKRRLRSPRVLF-NH2 [compound 48],> 2500
10,H-WSGPIGVSWGLRAAAAGFQLL-OH [compound 179],< 25
11,LYENK-NH2 [compound 65],> 2500
12,"PIPLV [compound 197, PIPLV-OH]",> 2500
13,REALRWDAPLRDPAPRQLL-OH [compound 54],< 25
14,REAPRWDAPLRDPALFQLL-OH [compound 58],< 25
15,REAPRWDAPLRDPALRYLL-OH [compound 59],< 25
16,REAPRWDAPLRDPALRYYL-OH [compound 61],25 to 250
17,TGGFM-OH [compound 62],> 2500

# Target: T2, Sortilin-6His (Homo sapiens (Human), UniProt Q99523 78-755)
# T2 construct: In MST it was labelled non-covalently with RED-tris-NTA; also called soluble ectodomain of sortilin-6his; fluorescent sortilin-6his
# T2 sequence (Q99523 78-755 V650M limits assumed): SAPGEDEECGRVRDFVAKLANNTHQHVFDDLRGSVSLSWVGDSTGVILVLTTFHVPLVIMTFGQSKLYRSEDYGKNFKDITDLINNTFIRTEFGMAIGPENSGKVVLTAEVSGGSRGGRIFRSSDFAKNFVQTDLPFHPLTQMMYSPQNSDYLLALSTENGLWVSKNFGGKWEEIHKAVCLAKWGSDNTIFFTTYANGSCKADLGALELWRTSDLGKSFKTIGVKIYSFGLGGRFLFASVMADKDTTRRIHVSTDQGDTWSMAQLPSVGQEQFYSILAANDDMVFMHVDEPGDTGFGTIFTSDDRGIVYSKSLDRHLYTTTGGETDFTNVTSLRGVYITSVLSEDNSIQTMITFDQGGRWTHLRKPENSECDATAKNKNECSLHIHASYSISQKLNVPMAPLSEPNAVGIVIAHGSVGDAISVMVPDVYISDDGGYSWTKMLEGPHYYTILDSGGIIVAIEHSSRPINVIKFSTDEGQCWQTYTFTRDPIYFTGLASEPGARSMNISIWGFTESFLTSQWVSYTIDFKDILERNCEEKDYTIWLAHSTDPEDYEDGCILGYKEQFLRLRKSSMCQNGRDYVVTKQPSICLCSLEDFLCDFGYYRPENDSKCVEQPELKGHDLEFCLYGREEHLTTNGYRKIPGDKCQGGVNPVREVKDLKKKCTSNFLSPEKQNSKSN
# Test: MST on labelled sortilin-6his ectodomain; KD score: +++ <25 nM, ++ 25-250 nM, + 250-2500 nM, 0 >2500 nM
# Settings: not given
row,Molecule,KD [nM]
1,H-FYIL-OH [H-FYIL-OH],250 to 2500
2,H-PYLL-OH [H-PYLL-OH],250 to 2500
3,H-RQFL-OH [H-RQFL-OH],250 to 2500
4,H-PYIL-OH [H-PYIL-OH],25 to 250
5,H-KQLL-OH [H-KQLL-OH],25 to 250
6,H-PQLL-OH [H-PQLL-OH],25 to 250
